Source: paper PMC5908784, “Extracellular loops 2 and 3 of the calcitonin receptor selectively modify agonist binding and efficacy” (Biochemical Pharmacology, 2018)
Positions count from the first letter of the chain named. Where a SMILES comes first, the peptide text is derived from it. Bridges are numbered along the chain shown (N, C = ends).

Columns and labels:
Type in all cases: cell-based
[1] = molecular target: T1, hCTR I279A (Homo sapiens, UniProt P30988, I279A); assay: cAMP accumulation; settings: mean ± S.E.M.
T1 construct: expressed in transfected cells
T1 sequence (P30988 25-474 I279A): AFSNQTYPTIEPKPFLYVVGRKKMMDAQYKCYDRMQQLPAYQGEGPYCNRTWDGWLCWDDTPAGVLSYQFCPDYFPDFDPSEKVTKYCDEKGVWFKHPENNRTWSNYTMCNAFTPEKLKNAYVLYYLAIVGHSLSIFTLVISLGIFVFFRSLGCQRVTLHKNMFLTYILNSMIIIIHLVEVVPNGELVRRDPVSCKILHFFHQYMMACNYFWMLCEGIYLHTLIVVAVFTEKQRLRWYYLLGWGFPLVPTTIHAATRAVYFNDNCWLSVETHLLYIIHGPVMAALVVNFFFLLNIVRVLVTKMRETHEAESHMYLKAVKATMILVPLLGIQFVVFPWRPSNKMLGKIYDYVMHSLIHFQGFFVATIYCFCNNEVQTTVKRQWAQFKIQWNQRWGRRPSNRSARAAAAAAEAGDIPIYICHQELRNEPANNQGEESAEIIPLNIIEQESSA
In short: (§1)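 Cells expressing the receptor mutant were seeded overnight, then stimulated with increasing ligand concentrations for 30 min in the presence of IBMX. After ethanol extraction and drying at room temperature, cAMP was measured and normalized to the 100 μM forskolin response. EC50 and Emax came from 3-parameter logistic fits.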

[2] = molecular target: T2, hCTR C289A (Homo sapiens, UniProt P30988, C289A); assay: cAMP accumulation; settings: mean ± S.E.M.
T2 construct: c-Myc (N); expressed in transfected cells
T2 sequence (P30988 25-474 C289A): T1 sequence (P30988 25-474 I279A) with A255I, C265A
In short: as §1

[3] = molecular target: T3, hCTR V358A (Homo sapiens, UniProt P30988, V358A); assay: ERK1/2 phosphorylation; settings: CV1-FlpIn cells, mean ± S.E.M.
T3 construct: c-Myc (N); expressed in transfected cells
T3 sequence (P30988 25-474 V358A): T1 sequence (P30988 25-474 I279A) with A255I, V334A
Description: (§2) Cells (2.5 × 10^4 cells/well) were seeded into 96-well culture plates and incubated overnight. […] Data were normalized to the maximal response elicited by 10% FBS determined at 6 min.
(§3) Data were corrected for radioligand occupancy using the Cheng-Prusoff equation in Prism; as such data are reported as pKi. Emax and EC50 were estimated from concentration-response curves using with a 3-parameter logistic equation in Prism (v7). These values are a composite of functional affinity, efficacy and stimulus response coupling. […] Significance was accepted at P < 0.05.

[4] = molecular target: T4, hCTR W361A (Homo sapiens, UniProt P30988, W361A); assay: ERK1/2 phosphorylation; settings: hCTR W361A, CV1-FlpIn cells, mean ± S.E.M.
T4 construct: expressed in transfected cells
T4 sequence (P30988 25-474 W361A): T1 sequence (P30988 25-474 I279A) with A255I, W337A
Description: as §2, §3

[5] = molecular target: T5, hCTR N365A (Homo sapiens, UniProt P30988, N365A); assay: ERK1/2 phosphorylation; settings: CV1-FlpIn cells, mean ± S.E.M.
T5 construct: c-Myc (N); expressed in transfected cells
T5 sequence (P30988 25-474 N365A): T1 sequence (P30988 25-474 I279A) with A255I, N341A
Description: as §2, §3

[6] = cAMP, CV1-FlpIn cells, 30 min, IBMX
[7] = pERK, three-parameter logistic fit

CSCC[C@H](NC(=O)CNC(=O)[C@H](CO)NC(=O)[C@H](Cc1ccccc1)NC(=O)[C@H](CCCNC(=N)N)NC(=O)[C@H](Cc1c[nH]cn1)NC(=O)[C@H](Cc1ccccc1)NC(=O)[C@H](CC(N)=O)NC(=O)[C@H](CC(N)=O)NC(=O)[C@H](CC(C)C)NC(=O)[C@H](CC(N)=O)NC(=O)[C@H](CCCNC(=N)N)NC(=O)[C@H](Cc1c[nH]c2ccccc12)NC(=O)[C@H](Cc1ccc(O)cc1)NC(=O)[C@H](C)NC(=O)[C@H](CO)NC(=O)[C@H](CC(C)C)NC(=O)[C@@H](NC(=O)[C@@H]1CSSC[C@H](N)C(=O)N[C@@H](CO)C(=O)N[C@@H](CC(N)=O)C(=O)N[C@@H](CC(C)C)C(=O)N[C@@H](CO)C(=O)N[C@@H]([C@@H](C)O)C(=O)N1)C(C)C)C(=O)NCC(=O)N[C@@H](Cc1ccccc1)C(=O)NCC(=O)N1CCC[C@H]1C(=O)N[C@@H](CCC(=O)O)C(=O)N[C@H](C(=O)N1CCC[C@H]1C(N)=O)[C@@H](C)O [pCT] (H-CSNLSTCVLSAYWRNLNNFHRFSGMGFGPETP-NH2; disulfide 1-7)
Emax ([1]; cAMP maximal response, SEM): 97 ± 4% | EC50 [1, 6]: 0.0398 nM | Emax ([2]; cAMP maximal response, SEM): 115 ± 7% | EC50 [2, 6]: 1.02 nM | Emax ([3]; pERK maximal response): 101 ± 8% | EC50 [3, 7]: 2.24 nM | Emax ([4]; pERK maximal response, read-out: Emax (% WT)): 76 ± 6% | EC50 [4, 7]: 6.31 nM | Emax ([5]; pERK maximal response): 98 ± 10% | EC50 [5, 7]: 1.62 nM
